Results: patent US11021444B2, “Antiviral compounds” (priority 2013, dated 2021)
Read-outs that look alike come from different tables or passages of the source.

Columns and labels:
[1] = biological target: recombinant RSV complex (Human respiratory syncytial virus A, UniProt P28887); experiment: RSV Polymerase Inhibition Assay; format: biochemical
Procedure, shortened: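 10 nM recombinant RSV polymerase complex in Tris-HCl pH 7.5, 6 mM MgCl2 with RNA oligonucleotide template and radionucleotides, incubated 2 h at 30 °C with increasing inhibitor concentrations. Reaction stopped with EDTA; radiolabeled RNA product counted by scintillation.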

[2] = system: RSV replicon; experiment: microbe, parasite or virus in culture; format: cell-based; conditions: human respiratory syncytial virus, read-out: EC50, the concentration of the drug required for reducing RSV replicon RNA by 50%
Experimental: The Renilla Luciferase Assay System (Promega, Cat. #E2820) was used to measure anti-RSV replicon activity. […] Luminescence was recorded using a Perkin Elmer multilabel counter Victor3V. EC50, the concentration of the drug required for reducing RSV replicon RNA by 50% in relation to the untreated cell control value, was calculated from the plot of percentage reductions of the optical density (OD) value against the drug concentrations using the Microsoft Excel forecast function.

[3] = system: Respiratory Syncytial Virus (RSV) long strain; experiment: microbe, parasite or virus in culture; format: cell-based; conditions: human respiratory syncytial virus, Tables A and B list compounds by EC50 band
Procedure, shortened: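 HEp-2 cells infected with 100 TCID50 virus per well, compounds in duplicate, 9-point 1/3 dilutions from 100 μM or 1 μM, 1% DMSO. After 5 days at 37 °C, cell viability (CPE protection) read by CCK-8 absorbance at 450 nm, 630 nm background.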

[4] = Cytotoxicity Determination (CCK-8, without addition of virus); format: cell-based; conditions: human, 50% cytotoxicity concentration (CC50)
Procedure, shortened: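 HEp-2 cells were seeded at 1,500 cells/well one day before compound addition. Compounds were tested without virus in duplicate over 7 points from 100 μM in 1/2 steps, with 1% final DMSO, 5 days at 37 °C, 5% CO2. Viability was read by CCK-8 after 3-4 hours.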

[5] = HEp-2, 120 h, read-out: 50% effective concentration (EC50), HEp-2 cells infected with RSV long strain, 5 days, CCK-8 readout

Chain of recombinant RSV complex (P28887 whole entry): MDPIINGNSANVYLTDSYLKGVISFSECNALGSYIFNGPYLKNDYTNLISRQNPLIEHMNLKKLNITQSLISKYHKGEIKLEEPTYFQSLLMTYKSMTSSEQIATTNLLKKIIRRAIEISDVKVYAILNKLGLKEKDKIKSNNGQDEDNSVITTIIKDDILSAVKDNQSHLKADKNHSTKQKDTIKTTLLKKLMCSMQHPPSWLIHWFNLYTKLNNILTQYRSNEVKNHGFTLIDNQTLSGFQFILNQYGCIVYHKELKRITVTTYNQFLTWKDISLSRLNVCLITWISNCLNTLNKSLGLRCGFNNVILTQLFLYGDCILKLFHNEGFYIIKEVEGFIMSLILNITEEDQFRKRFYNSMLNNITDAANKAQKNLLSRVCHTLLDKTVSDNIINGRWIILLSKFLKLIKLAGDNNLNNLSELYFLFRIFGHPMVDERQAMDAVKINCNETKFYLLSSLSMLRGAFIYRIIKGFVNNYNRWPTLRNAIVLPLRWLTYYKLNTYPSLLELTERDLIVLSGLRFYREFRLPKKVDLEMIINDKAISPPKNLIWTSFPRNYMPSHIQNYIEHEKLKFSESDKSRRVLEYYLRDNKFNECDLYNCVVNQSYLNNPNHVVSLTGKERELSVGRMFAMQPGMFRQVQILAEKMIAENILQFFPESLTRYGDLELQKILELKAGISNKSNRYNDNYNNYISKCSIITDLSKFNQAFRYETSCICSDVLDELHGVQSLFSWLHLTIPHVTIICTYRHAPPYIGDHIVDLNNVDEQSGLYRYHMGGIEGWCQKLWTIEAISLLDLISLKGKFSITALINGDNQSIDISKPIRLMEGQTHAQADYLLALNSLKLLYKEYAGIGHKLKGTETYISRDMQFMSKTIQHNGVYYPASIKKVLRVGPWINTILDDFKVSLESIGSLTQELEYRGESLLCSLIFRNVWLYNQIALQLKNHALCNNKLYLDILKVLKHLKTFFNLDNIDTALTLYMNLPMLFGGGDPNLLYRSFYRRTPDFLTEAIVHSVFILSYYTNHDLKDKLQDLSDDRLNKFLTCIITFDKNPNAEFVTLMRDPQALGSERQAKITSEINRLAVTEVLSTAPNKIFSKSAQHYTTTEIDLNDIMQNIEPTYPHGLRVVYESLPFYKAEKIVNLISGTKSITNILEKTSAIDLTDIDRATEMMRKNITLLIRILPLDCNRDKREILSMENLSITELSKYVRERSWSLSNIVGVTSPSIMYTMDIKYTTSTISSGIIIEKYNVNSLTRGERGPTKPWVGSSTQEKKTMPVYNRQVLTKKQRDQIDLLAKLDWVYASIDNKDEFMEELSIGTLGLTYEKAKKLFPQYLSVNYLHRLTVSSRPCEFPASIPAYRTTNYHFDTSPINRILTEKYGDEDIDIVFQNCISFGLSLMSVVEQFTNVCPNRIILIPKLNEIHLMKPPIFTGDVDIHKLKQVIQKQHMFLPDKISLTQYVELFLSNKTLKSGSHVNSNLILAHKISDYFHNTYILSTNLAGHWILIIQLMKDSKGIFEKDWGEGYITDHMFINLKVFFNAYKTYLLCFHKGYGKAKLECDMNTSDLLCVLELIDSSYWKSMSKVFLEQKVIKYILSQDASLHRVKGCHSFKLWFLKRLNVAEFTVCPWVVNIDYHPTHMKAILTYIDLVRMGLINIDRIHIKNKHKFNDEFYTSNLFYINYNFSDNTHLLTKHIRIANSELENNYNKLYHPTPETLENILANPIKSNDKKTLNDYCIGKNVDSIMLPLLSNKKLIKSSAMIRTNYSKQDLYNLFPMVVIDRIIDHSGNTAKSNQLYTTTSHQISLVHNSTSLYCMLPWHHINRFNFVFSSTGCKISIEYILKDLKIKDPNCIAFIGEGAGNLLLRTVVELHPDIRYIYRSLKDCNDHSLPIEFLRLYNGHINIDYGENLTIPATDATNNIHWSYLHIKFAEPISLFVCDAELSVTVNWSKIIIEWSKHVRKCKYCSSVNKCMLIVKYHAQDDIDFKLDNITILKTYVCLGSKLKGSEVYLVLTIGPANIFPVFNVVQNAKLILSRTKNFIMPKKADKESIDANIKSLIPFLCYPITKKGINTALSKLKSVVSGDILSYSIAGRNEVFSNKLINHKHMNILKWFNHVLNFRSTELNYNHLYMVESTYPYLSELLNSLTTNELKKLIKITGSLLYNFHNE
Chain of recombinant RSV complex (P03421 whole entry, further chain): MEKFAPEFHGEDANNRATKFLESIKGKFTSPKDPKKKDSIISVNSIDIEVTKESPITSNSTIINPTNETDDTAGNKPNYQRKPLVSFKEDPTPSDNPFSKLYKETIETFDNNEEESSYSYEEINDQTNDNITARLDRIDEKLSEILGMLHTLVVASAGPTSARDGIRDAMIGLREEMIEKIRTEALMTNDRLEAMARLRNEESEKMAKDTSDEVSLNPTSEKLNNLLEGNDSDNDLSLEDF

Q: With `CCNC(C)(C)c1cc(-c2ccc(F)c(Cl)c2)nc(C(O)(CNC(=O)c2ccc(OC3CC3)c(OC)c2)C(F)(F)F)c1` (centres unmarked) [Compound 390] as the compound, how does the IC50 [1] read?
A: < 1000 nM

Q: What about the EC50 [2] of the same compound?
A: < 1000 nM

Q: For `COc1cc(-c2cc(C(C)(C)N)cc(C(O)(CNC(=O)c3ccc(OCCO)c(OC)c3)C(F)(F)F)n2)ccn1` (centres unmarked) [Compound 659], which IC50 [1] is on record?
A: < 10000 nM

Q: What about the EC50 [2] of the same compound?
A: < 1000 nM

Q: With `COc1cc(C(=O)NCC(O)(c2cc(C(C)(C)NC(C)=O)cc(-c3ccc(F)c(Cl)c3)n2)C(F)(F)F)ccc1OC[C@@H](C)O` (some centres unmarked) [Compound 601] as the compound, how does the IC50 [1] read?
A: < 1000 nM

Q: What about the EC50 [2] of the same compound?
A: < 1000 nM

Q: With `COc1cc(C(=O)NCC(O)(c2cc(C3(C)CC(O)C3)cc(-c3ccc(F)c(Cl)c3)n2)C(F)(F)F)ccc1OC1CC1` (centres unmarked) [Compound 564] as the compound, how does the IC50 [1] read?
A: < 10000 nM

Q: And the EC50 [2]?
A: < 1000 nM

Q: For `COc1cc(C(=O)NCC(O)(c2cc(C(C)(C)N)cc(-c3ccc(Cl)nc3)n2)C(F)(F)F)ccc1OC1CC1` (centres unmarked) [Compound 567], which IC50 [1] is on record?
A: < 1000 nM

Q: And the EC50 [2]?
A: < 1000 nM

Q: With `COc1cc(C(=O)NCC(O)(c2cc(C3(O)CNC3)cc(-c3ccc(F)c(Cl)c3)n2)C(F)(F)F)ccc1OC1CC1` (centres unmarked) [Compound 555] as the compound, how does the IC50 [1] read?
A: < 1000 nM

Q: What about the EC50 [2] of the same compound?
A: < 1000 nM

Q: Which results are given for `COc1cc(C(=O)NCC(C)(O)c2ccc(OC)c(-c3ccc(F)c(Cl)c3)n2)ccc1OCS(C)(=O)=O` (centres unmarked) [Compound 379]?
A: IC50 [1]: < 1000 nM; EC50 [2]: < 1000 nM

Q: Which results are given for `COc1cc(C(=O)NCC(O)(c2cc(C(C)(C)N)cc(-c3ccc(C(F)(F)F)cc3)n2)C(F)(F)F)ccc1OC1CC1` (centres unmarked) [Compound 523]?
A: IC50 [1]: < 1000 nM; EC50 [2]: < 1000 nM

Q: Which results are given for `COc1cc(C(=O)NCC(O)(c2ccc(OC)c(-c3ccc(F)cc3)n2)C(F)(F)F)ccc1OCC(F)F` (centres unmarked) [Compound 341]?
A: IC50 ([1]; read-out: IC50 (compound concentration at which the enzyme-catalyzed rate was reduced by 50%), 10 nM recombinant RSV complex, 2 h at 30° C., Tables E, F and G list compounds by IC50 band): < 1000 nM; EC50 [2]: < 1000 nM

Q: For `COc1cc(C(=O)NCC(O)(c2cc(C3(C)CCN(C)C3)cc(-c3ccc(F)cc3)n2)C(F)(F)F)ccc1OC1CC1` (centres unmarked) [Compound 506], which IC50 [1] is on record?
A: < 1000 nM

Q: What about the EC50 [2] of the same compound?
A: < 1000 nM

Q: For `COc1cc(C(=O)NCC(O)(c2ccc(OC)c(-c3ccc(F)c(Cl)c3)n2)C(F)(F)F)ccc1OC(C)C` (centres unmarked) [Compound 378], which IC50 [1] is on record?
A: < 1000 nM

Q: And the EC50 [2]?
A: 1000 to 50000 nM

Q: Which results are given for `COc1ccc(C(O)(CNC(=O)c2ccc(OCC(N)=O)c(F)c2)C(F)(F)F)nc1-c1ccc(F)c(Cl)c1` (centres unmarked) [Compound 380]?
A: IC50 [1]: < 1000 nM; EC50 [2]: < 1000 nM

Q: What does the source list for `COC(=O)C(C)(N)c1cc(-c2ccc(F)cc2)nc(C(O)(CNC(=O)c2ccc(OC3CC3)c(OC)c2)C(F)(F)F)c1` (centres unmarked) [Compound 622]?
A: IC50 [1]: < 1000 nM; EC50 [2]: < 1000 nM

Q: With `COc1cc(C(=O)NCC(O)(c2cc(C3(NC(C)=O)CCC3)cc(-c3ccc(F)c(Cl)c3)n2)C(F)(F)F)ccc1OC1CC1` (centres unmarked) [Compound 354] as the compound, how does the IC50 [1] read?
A: < 1000 nM

Q: What about the EC50 [2] of the same compound?
A: < 1000 nM

Q: What does the source list for `COc1cc(C(=O)NCC(O)(c2cc3c(c(-c4c[nH]c5c(F)cccc45)n2)OCC3(C)N)C(F)(F)F)ccc1OCCO` (centres unmarked) [Compound 647]?
A: IC50 [1]: < 1000 nM; EC50 [2]: < 1000 nM

Q: With `COc1cc(C(=O)NCC(O)(c2cc(C3(C)CN(C(C)C)C3)cc(-c3ccc(F)cc3)n2)C(F)(F)F)ccc1OCCO` (centres unmarked) [Compound 584] as the compound, how does the IC50 [1] read?
A: < 1000 nM

Q: And the EC50 [2]?
A: < 1000 nM

Q: With `COc1cc(C(=O)NCC(=O)c2cc3c(c(-c4ccc(F)c(Cl)c4)n2)OCC3(C)C)ccc1OC1CCN(C)C1=O` (centres unmarked) [Compound 222] as the compound, how does the EC50 [3, 5] read?
A: < 1000 nM

Q: And the CC50 at 5 days [4]?
A: 10000 to 100000 nM

Q: What about the IC50 [1] of the same compound?
A: < 1000 nM

Q: With `COc1ccc(C(O)(CNC(=O)c2ccc3[nH]cnc3c2)C(F)(F)F)nc1-c1ccc(F)c(Cl)c1` (centres unmarked) [Compound 253] as the compound, how does the EC50 [3, 5] read?
A: 1000 to 50000 nM

Q: And the CC50 at 5 days [4]?
A: 10000 to 100000 nM

Q: What about the IC50 [1] of the same compound?
A: < 10000 nM

Q: Which results are given for `COc1ccc(C(C)(O)CNC(=O)c2ccc(-c3nc(C)no3)cc2)nc1-c1ccc(F)c(Cl)c1` (centres unmarked) [Compound 175]?
A: EC50 [3, 5]: 1000 to 50000 nM; CC50 at 5 days [4]: > 100000 nM; IC50 [1]: < 10000 nM

Q: Which results are given for `CNCC(O)(CNC(=O)c1ccc(OCCO)c(OC)c1)c1ccc(OC)c(-c2ccc(F)c(Cl)c2)n1` (centres unmarked) [Compound 177]?
A: EC50 [3, 5]: 1000 to 50000 nM; CC50 at 5 days [4]: > 100000 nM; IC50 [1]: < 10000 nM

Q: With `COc1cc(C(=O)NCC(O)(CO)c2ccc(OC)c(-c3ccc(F)c(Cl)c3)n2)ccc1OC1CC1(F)F` (centres unmarked) [Compound 469] as the compound, how does the EC50 [3, 5] read?
A: < 1000 nM

Q: What about the CC50 at 5 days [4] of the same compound?
A: 10000 to 100000 nM

Q: What about the IC50 [1] of the same compound?
A: < 1000 nM

Q: With `COc1cc(C(=O)NCC(O)(c2ccc(OC)c(-c3ccc(F)c(Cl)c3)n2)C(F)(F)F)ccc1OC1CCCC1=O` (centres unmarked) [Compound 257] as the compound, how does the EC50 [3, 5] read?
A: < 1000 nM

Q: What about the CC50 at 5 days [4] of the same compound?
A: 10000 to 100000 nM

Q: And the IC50 [1]?
A: < 1000 nM

Q: What does the source list for `CC(C)(N)c1cc(-c2ccc(F)cc2)nc(C(O)(CNC(=O)c2ccc3c(c2)NC(=O)C3)C(F)(F)F)c1` (centres unmarked) [Compound 570]?
A: EC50 ([3]; 120 h, read-out: 50% effective concentration (EC50), HEp-2 cells infected with RSV long strain, 5 days, CCK-8 readout): < 1000 nM; CC50 at 5 days [4]: 10000 to 100000 nM; IC50 [1]: < 1000 nM

Q: For `COc1cc(C(=O)NCC(O)(c2cc3c(c(-c4ccc(F)cc4)n2)OCC3(C)N)C(F)(F)F)ccc1OC1CC(O)C1` (centres unmarked) [Compound 597], which EC50 [3, 5] is on record?
A: < 1000 nM

Q: What about the CC50 at 5 days [4] of the same compound?
A: 10000 to 100000 nM

Q: And the IC50 [1]?
A: < 10000 nM
